The values that follow come from US9011853B2, “B7-H4 fusion proteins and methods of use thereof” (Amplimmune, Inc., priority 2009, dated 2015).

Assay [1] has as its system lymph node cells and splenocytes. The assay is described as follows: In vitro antigen-specific recall responses of cells from treated R-EAE mice. In kind it is in vivo, mouse. Here is the method: Draining lymph nodes (axillary, brachial, and inguinal) were harvested, and single cell suspensions were obtained by mashing through sterile 60-mesh wire screens. In 96-well microtiter plates, 5×10^5 erythrocyte-free (Tris-NH4Cl-treated) lymph node cells per well were incubated in supplemented culture medium with or without antigen at 37° C. in 7% CO2 for […] and then pulsed with 1 μCi/well of [^3H]-Thymidine for the final 48 h of culture. Proliferation was determined by uptake of [^3H]-Thymidine detected using a Topcount Microplate Scintillation Counter (Packard Instruments, Meridan, Conn.). Results are expressed as the mean of triplicate cultures from individual animal±SEM. Supernatants were collected at 72 hr for cytokine analysis. Cytokine measurements were performed using the Mouse Cytokine 10-Plex system and Luminex Liquidchip analyzer (Qiagen, Valencia, Calif.) or ELISA.
Lymph nodes were isolated from the murine B7-H4-Ig and Control IgG injected EAE mice as described above. T cells were harvested and were elicited with PLP139-151, the disease inducing dominant epitope, and PLP178-191, the spread epitope-specific peptide, in vitro. [^3H]-thymidine was added to the in vitro stimulation assay to analyze T cell proliferation.
Lymph nodes were isolated from Control IgG and murine B7-H4-Ig treated mice as described above. T cells were harvested and immune responses were elicited with PLP139-151, the disease inducing dominant peptide, and PLP178-191, the spread epitope peptide, in vitro. Supernatant was collected and analyzed for IFN-γ via commercially available ELISA kit.
Draining lymph nodes were harvested from the animals, and single cell suspensions prepared as described above and reactivated in vitro in the presence of anti-CD3 (0.1-10 μg/mL), PLP139-151 (1-20 μg/mL), or OVA323-339 (1-20 μg/mL). T cell proliferation in vitro was analyzed by [^3H] thymidine incorporation.
The impact of B7-H4-Ig treatment on epitope spreading was also examined. To do so, spleens and draining lymph nodes were collected from the same mice that were analyzed for the number and phenotype of CD4^+ T cells. SJL mouse were immunized with 50 μg of PLP139-151 peptide emulsified in CFA. Mice were treated B7-H4-Ig during remission: 60 or 100 ug per dose, 3 doses/wk, for 2 weeks (6 doses). On Day 35 total splenocytes and lymph node cells (5×10^5 cells per 200 ul culture) were activated in separate wells per mouse in the presence of anti-CD3 (1 ug/ml), PLP139-151 or PLP178-191 (20 μg/mL). At 24 hours following the initiation of culture, 1 μCi of ^3[H] tritiate thymidine was added to each well and wells were analyzed at 72 hours post the initiation of culture. This presented as the mean CPM. […] Therefore, B7-H4-Ig treatment during remission of ongoing R-EAE in SJL mice appears to decrease epitope spreading via an increase in the number of Treg cells. […] The higher dose appears more efficacious to lower the disease score at later time points (beyond Day 42 post disease initiation).

The test system of assay [2] is DBA/1J mice. The assay is described as follows: Collagen-induced arthritis (CIA) prophylactic model, arthritis score. Particulars: 0.5 mg (20 mg/kg) IP from day of CII immunization, 2 times each week up to 6 weeks; days 33 and beyond; vs vehicle (FIG. 3). The assay is classed as in vivo, mouse. From the text: CIA is a well-characterized mouse model for human RA, in which injection of collagen II (CII) into DBA/1J mice induces swelling and progressive inflammation in joints resulting in arthritis. […] B7-H4-Ig treatment continued 2 times each week, up to 6 weeks. On day 21, mice were rechallenged with CII emulsified in IFA. FIG. 2 outlines a brief experimental design. Day 40 was the last B7-H4-Ig treatment.

Assay [3] deals with CD4^+CD62L^+ naïve T cells. Briefly: Mouse Th17 assay, IL-17A ELISA. In kind it is cell-based. Particulars: 20, 10, 5, 2.5, and 1.25 μg/mL (FIGS. 57, 58). As to the method: CD4^+CD62L^+ naïve T cells were isolated from BALB/c mice as in the above examples, and activated by anti-CD3 and anti-CD28 bound beads in the presence of Th17 differntiation cocktail (TGF-β1 (10 ng/mL), IL-6 (50 ng/mL), IL-23 (4 ng/mL), anti-IL-4 (10 μg/mL), anti-IFN-γ (5 μg/mL) and anti-IL-2 (5 μg/mL)). Murine B7-H4-Ig (10 μg/mL) or retinoic acid (RA) (10 μM) was added to the cultures on day 0, day 1, or day 2 of the 4 day culture. IL-17A levels were measured by ELISA at the end of the 4 day culture.
The Th17 assay is 4 days in duration. In order to determine when B7-H4-Ig is acting, the Th17 assay was performed with the addition of 10 μg/mL of murine B7-H4-Ig, 10 μg/mL of mouse IgG control, or […] retinoic acid on Day 0, Day 1, or Day 2.
Peripheral T cells were obtained from spleens and inguinal lymph nodes of 6-9 week old BALB/c mice by mechanical disruption through a cell strainer followed by red blood cell (RBC) lysis.
Naïve helper T cells (CD4^+CD62L^+) were obtained using the Miltenyi Biotec microbead system. CD4^+ cells are enriched by negative selection, and followed by a positive selection of CD62L^+. In some experiments CD25+ cells were also depleted.
After selection, cells are activated in vitro with anti-CD3/CD28 beads at a 1:1 cell:bead ratio in the presence of the TH17 differentiation cocktail (TGF-β1 (10 ng/ml), IL-6 (50 ng/ml), IL-23 (4 ng/ml), anti-IL-2 (5 μg/ml), anti-IL-4 (10 μg/ml), and anti-IFN-γ (5 μg/ml)). Murine B7-H4-Ig is added at a final concentration of 1.25-20 μg/ml. Retinoic acid (RA) is used as positive control and mouse IgG is used as a negative control.
After 4 days of culture, cultures are spun down and supernatants are harvested and stored at <−65° C. until analyzed for IL-17A levels by ELISA.

The mark [4] stands for this setting: Day 35 splenocytes and lymph node cells, treated during remission 60 or 100 ug per dose, 3 doses/wk, 2 weeks (FIGS. 45A, 45B).

As to “B7-H4-Ig: B7-H4 extracellular domain fused to Ig Fc; bare label is the human protein in Example 3, murine protein in Examples 1, 2, 5, 7-11”, in assay [1] (setting [4]), the “proliferative response to PLP139-151” value is “decreased the proliferative response” and the “proliferative response to PLP178-191” value was “decreased the proliferative response”. Also, in assay [1] (administered on Day 0 (FIG. 38)), the “IFN-γ production in ex vivo T cell recall with PLP139-151 peptide” value was “specific inhibition of immune response to PLP139-151 peptide”. Besides, in assay [1] (draining lymph nodes, Day 10 study (FIG. 40)), the “T cell proliferation when stimulated with anti-CD3” value was “robust T cell proliferation”. Further, the “T cell response to PLP139-151 peptide stimulation ([3H] thymidine)” value in assay [1] (draining lymph nodes, Day 10 study, both 3 and 15 mg/kg doses (FIG. 40)) is reported as “little to no response”. The overall arthritis scores result in assay [2] is reported as “significantly lower than the scores for vehicle-injected CIA mice”.
As for “Human B7-H4-Ig: human B7-H4 extracellular domain fused to hinge, CH2 and CH3 regions of human immunoglobulin Cγ1 chain; representative SEQ ID NOs:114-137”, the “activity on mouse cells in the Th17 assay (IL-17A)” value in assay [3] is “active”.
